Experiments:
[1] = biological target: T1, Xanthine dehydrogenase/oxidase (Bos taurus, UniProt P80457); assay: Noncompetitive inhibition of bovine buttermilk xanthine oxidase by Lineweaver-burk plot analysis; settings: read-out: Kis
[2] = biological target: T1, Xanthine dehydrogenase/oxidase; assay: Inhibition of bovine buttermilk xanthine oxidase by spectrophotometric analysis; settings: cattle

T1 sequence (P80457 whole entry): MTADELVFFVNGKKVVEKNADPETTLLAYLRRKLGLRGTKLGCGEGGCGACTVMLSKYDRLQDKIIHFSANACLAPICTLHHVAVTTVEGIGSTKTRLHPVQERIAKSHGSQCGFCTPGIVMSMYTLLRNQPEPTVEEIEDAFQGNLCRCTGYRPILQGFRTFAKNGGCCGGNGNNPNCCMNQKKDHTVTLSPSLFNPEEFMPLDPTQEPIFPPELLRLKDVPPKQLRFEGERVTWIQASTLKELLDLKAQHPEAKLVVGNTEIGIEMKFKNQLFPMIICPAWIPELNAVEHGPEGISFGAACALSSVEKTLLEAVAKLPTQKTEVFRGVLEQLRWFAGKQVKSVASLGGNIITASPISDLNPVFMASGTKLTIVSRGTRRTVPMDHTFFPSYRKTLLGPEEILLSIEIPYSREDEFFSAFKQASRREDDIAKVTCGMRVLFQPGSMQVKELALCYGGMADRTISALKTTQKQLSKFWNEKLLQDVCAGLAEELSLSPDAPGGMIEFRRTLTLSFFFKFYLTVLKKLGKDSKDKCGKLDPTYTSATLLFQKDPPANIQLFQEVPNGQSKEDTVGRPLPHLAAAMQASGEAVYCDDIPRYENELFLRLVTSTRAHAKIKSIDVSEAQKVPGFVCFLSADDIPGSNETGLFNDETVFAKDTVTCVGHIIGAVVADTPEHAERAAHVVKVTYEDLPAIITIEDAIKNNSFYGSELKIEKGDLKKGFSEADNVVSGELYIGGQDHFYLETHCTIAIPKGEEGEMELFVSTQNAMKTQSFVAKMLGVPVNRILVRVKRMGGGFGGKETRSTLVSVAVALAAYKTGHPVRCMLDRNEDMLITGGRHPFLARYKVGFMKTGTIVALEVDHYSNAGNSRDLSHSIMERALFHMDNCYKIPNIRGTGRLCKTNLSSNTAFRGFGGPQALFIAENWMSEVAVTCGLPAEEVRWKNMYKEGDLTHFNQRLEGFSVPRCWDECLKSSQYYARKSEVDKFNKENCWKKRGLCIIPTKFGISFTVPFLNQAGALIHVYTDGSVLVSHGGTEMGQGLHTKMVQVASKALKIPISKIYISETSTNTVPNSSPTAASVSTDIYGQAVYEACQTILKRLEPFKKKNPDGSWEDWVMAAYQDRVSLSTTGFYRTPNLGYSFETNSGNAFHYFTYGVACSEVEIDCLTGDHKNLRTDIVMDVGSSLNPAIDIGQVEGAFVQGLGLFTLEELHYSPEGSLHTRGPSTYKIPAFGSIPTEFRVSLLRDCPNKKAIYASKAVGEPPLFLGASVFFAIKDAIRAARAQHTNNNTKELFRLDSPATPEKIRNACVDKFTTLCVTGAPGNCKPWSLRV

| SMILES | Ki [1] [µM] | inhibition (INH) [2] |
| --- | --- | --- |
| O=C1Cc2[nH]ccc2C(=O)N1 | 92.5 |  |
| CN1C(=O)Cc2[nH]ccc2C1=O | 120 |  |
| O=C1Cc2[nH]ccc2C(=O)O1 |  | Not Active |
